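1) Cells in 96-well plates. 2) Compound, 48 h, 5 concentrations. 3) Linear interpolation between surrounding doses. 4) Unreached endpoint = highest concentration. GI50 = concentration required for 50% inhibition of growth.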 The source made the active and inactive calls. No stated cut-off is given here; in the data, active = GI50 up to about 1.1 µM and inactive = higher.
Experiments:
Experiment in all cases: growth of human tumour cells (NCI), 48 h
TK-10 = tested on: TK-10
NCI-H226 = tested on: NCI-H226
HCT-15 = tested on: HCT-15
ACHN = tested on: ACHN
UO-31 = tested on: UO-31
SN12C = tested on: SN12C
SK-MEL-2 = tested on: SK-MEL-2
SNB-78 = tested on: SNB-78
SW-620 = tested on: SW-620
786-0 = tested on: 786-0
DMS-114 = tested on: DMS-114
OVCAR-4 = tested on: OVCAR-4
A549 = tested on: A549
CCRF-CEM = tested on: CCRF-CEM
SR = tested on: SR
SK-MEL-28 = tested on: SK-MEL-28
HOP-92 = tested on: HOP-92
SNB-19 = tested on: SNB-19
NCI-H522 = tested on: NCI-H522
K562 = tested on: K562
DLD-1 = tested on: DLD-1
M14 = tested on: M14
UACC-62 = tested on: UACC-62
MOLT-4 = tested on: MOLT-4
HOP-62 = tested on: HOP-62
SK-MEL-5 = tested on: SK-MEL-5
RPMI-8226 = tested on: RPMI-8226
SF-539 = tested on: SF-539
OVCAR-5 = tested on: OVCAR-5
XF498 = tested on: XF498
KM12 = tested on: KM12
DMS-273 = tested on: DMS-273
HCT-116 = tested on: HCT-116
SF-268 = tested on: SF-268
SK-OV-3 = tested on: SK-OV-3
Malme-3M = tested on: Malme-3M
KM-20L2 = tested on: KM-20L2
OVCAR-8 = tested on: OVCAR-8
M19-MEL = tested on: M19-MEL
HT-29 = tested on: HT-29
HL-60 = tested on: HL-60
NCI-H460 = tested on: NCI-H460
LOX IMVI = tested on: LOX IMVI
U-251 = tested on: U-251
OVCAR-3 = tested on: OVCAR-3
COLO 205 = tested on: COLO 205
LXFL 529 = tested on: LXFL 529
HCC 2998 = tested on: HCC 2998
IGROV-1 = tested on: IGROV-1
CAKI-1 = tested on: CAKI-1
RXF 393 = tested on: RXF 393
UACC-257 = tested on: UACC-257
NCI/ADR-RES = tested on: NCI/ADR-RES
A498 = tested on: A498
MDA-MB-435 = tested on: MDA-MB-435
BT-549 = tested on: BT-549
SF-295 = tested on: SF-295
SNB-75 = tested on: SNB-75
MDA-MB-231 = tested on: MDA-MB-231
T47D = tested on: T47D
DU-145 = tested on: DU-145
Hs-578T = tested on: Hs-578T
PC-3 = tested on: PC-3
MDA-N = tested on: MDA-N
NCI-H23 = tested on: NCI-H23
EKVX = tested on: EKVX
MCF7 = tested on: MCF7

Measured: GI50

Cc1cc2c3ccccc3n3c2c2c1OC1(C)CCC(C2C1)C3(C)C (stereo not given)
inactive: TK-10 > 25 µM | NCI-H226 > 25 µM | ACHN > 25 µM | UO-31 > 25 µM | SN12C > 25 µM | SK-MEL-2 > 25 µM | SNB-78 > 25 µM | SW-620 > 25 µM | 786-0 > 25 µM | DMS-114 > 25 µM | OVCAR-4 > 25 µM | A549 > 25 µM | CCRF-CEM > 25 µM | SR > 25 µM | SK-MEL-28 > 25 µM | HOP-92 > 25 µM | SNB-19 > 25 µM | NCI-H522 > 25 µM | K562 > 25 µM | DLD-1 > 25 µM | M14 > 25 µM | UACC-62 > 25 µM | MOLT-4 > 25 µM | HOP-62 > 25 µM | SK-MEL-5 > 25 µM | RPMI-8226 > 25 µM | SF-539 > 25 µM | OVCAR-5 > 25 µM | XF498 > 25 µM | KM12 > 25 µM | DMS-273 > 25 µM | HCT-116 > 25 µM | SF-268 > 25 µM | SK-OV-3 > 25 µM | Malme-3M > 25 µM | KM-20L2 > 25 µM | OVCAR-8 > 25 µM | M19-MEL > 25 µM | HT-29 > 25 µM | HL-60 > 25 µM | NCI-H460 > 25 µM | LOX IMVI > 25 µM | U-251 > 25 µM | OVCAR-3 > 25 µM | COLO 205 > 25 µM | LXFL 529 > 25 µM | HCC 2998 > 25 µM | IGROV-1 > 25 µM
> 25 µM: HCT-15

CNc1nc(N(C)C)nc(N(C)C)n1 [PENTAMETHYL MELAMINE]
inactive: LXFL 529 > 100 µM

O=c1c2cc(I)ccc2nc(SCc2n[nH]c(=S)o2)n1Cc1ccccc1
inactive: CAKI-1 6.25 µM | TK-10 21 µM | NCI-H226 11.1 µM | UACC-257 18.1 µM | ACHN 15.3 µM | SN12C 14.1 µM | SK-MEL-2 15.6 µM | SW-620 19.7 µM | 786-0 16.7 µM | OVCAR-4 18.1 µM | A549 20.4 µM | CCRF-CEM 18.4 µM | SR 20.5 µM | SK-MEL-28 17.5 µM | NCI/ADR-RES 19.1 µM | A498 18.6 µM | HOP-92 14.3 µM | SNB-19 22.3 µM | NCI-H522 14.2 µM | K562 14.4 µM | M14 20.5 µM | UACC-62 12.5 µM | MOLT-4 20.7 µM | MDA-MB-435 19.3 µM | BT-549 18.9 µM | HOP-62 19.1 µM | SF-295 17.3 µM | SK-MEL-5 13.2 µM | RPMI-8226 16.3 µM | SF-539 16.1 µM | OVCAR-5 24.8 µM | KM12 16.9 µM | HCT-116 16 µM | SF-268 17.5 µM | SNB-75 4.78 µM | MDA-MB-231 17.3 µM | T47D 14.8 µM | SK-OV-3 23.4 µM | Malme-3M 17.9 µM | DU-145 16.3 µM | OVCAR-8 19.1 µM | HT-29 22.3 µM | HL-60 4.71 µM | Hs-578T 20.6 µM | PC-3 15.7 µM | NCI-H460 19.1 µM | LOX IMVI 15.7 µM | U-251 17.6 µM | OVCAR-3 15.2 µM | COLO 205 10.6 µM | MDA-N 17.3 µM | NCI-H23 16.3 µM | EKVX 19.3 µM | HCC 2998 18.8 µM | MCF7 15.9 µM | IGROV-1 16.6 µM
active: RXF 393 < 0.01 µM | UO-31 0.741 µM
17.3 µM: HCT-15

COc1ccc2nccc(C3=CCC4CCN(C(=O)c5ccccc5)C3C4)c2c1 (stereo not given)
inactive: CAKI-1 > 100 µM | TK-10 > 100 µM | RXF 393 > 100 µM | UACC-257 > 100 µM | UO-31 40.7 µM | SN12C > 100 µM | SK-MEL-2 > 100 µM | SNB-78 > 100 µM | SW-620 > 100 µM | 786-0 > 100 µM | DMS-114 > 100 µM | OVCAR-4 81.8 µM | A549 > 100 µM | CCRF-CEM 99.8 µM | SK-MEL-28 > 100 µM | A498 > 100 µM | HOP-92 > 100 µM | SNB-19 > 100 µM | NCI-H522 > 100 µM | K562 74.5 µM | DLD-1 > 100 µM | M14 > 100 µM | UACC-62 > 100 µM | MOLT-4 44.9 µM | HOP-62 > 100 µM | SF-295 > 100 µM | SK-MEL-5 93.3 µM | RPMI-8226 46.1 µM | SF-539 > 100 µM | XF498 92 µM | KM12 > 100 µM | DMS-273 > 100 µM | HCT-116 > 100 µM | SF-268 > 100 µM | SNB-75 93.5 µM | SK-OV-3 > 100 µM | Malme-3M > 100 µM | OVCAR-8 > 100 µM | M19-MEL > 100 µM | HT-29 > 100 µM | HL-60 51.6 µM | NCI-H460 > 100 µM | LOX IMVI > 100 µM | U-251 > 100 µM | OVCAR-3 86.9 µM | COLO 205 > 100 µM | NCI-H23 > 100 µM | EKVX > 100 µM | LXFL 529 > 100 µM | HCC 2998 > 100 µM | IGROV-1 > 100 µM
> 100 µM: HCT-15

COc1ccc(C2c3cc4c(cc3OC(NNC(N)=O)C2C)OCO4)cc1 (stereo not given)
inactive: CAKI-1 6.71 µM | TK-10 25.8 µM | RXF 393 6.92 µM | NCI-H226 14.9 µM | UACC-257 10.2 µM | ACHN 8.75 µM | UO-31 10.6 µM | SN12C 7.16 µM | SK-MEL-2 10.8 µM | SW-620 3.56 µM | 786-0 5.26 µM | OVCAR-4 56.4 µM | A549 7.73 µM | CCRF-CEM 2.95 µM | SR 1.9 µM | SK-MEL-28 7.23 µM | NCI/ADR-RES 7.5 µM | A498 2.87 µM | HOP-92 16.5 µM | SNB-19 13.7 µM | NCI-H522 3.45 µM | K562 2.86 µM | M14 6.41 µM | UACC-62 5.83 µM | MOLT-4 3.94 µM | MDA-MB-435 2.14 µM | BT-549 7.16 µM | HOP-62 6.28 µM | SF-295 3.58 µM | SK-MEL-5 6.85 µM | RPMI-8226 3.3 µM | SF-539 1.16 µM | OVCAR-5 26.6 µM | KM12 4.78 µM | HCT-116 4.7 µM | SF-268 11.2 µM | SNB-75 6.22 µM | MDA-MB-231 11.7 µM | T47D 27.4 µM | SK-OV-3 5.26 µM | Malme-3M 6.67 µM | DU-145 22.3 µM | OVCAR-8 6.67 µM | HT-29 3.3 µM | HL-60 2.2 µM | Hs-578T 3.53 µM | PC-3 4.69 µM | NCI-H460 4.94 µM | LOX IMVI 4.39 µM | U-251 4.95 µM | OVCAR-3 3.85 µM | COLO 205 3.95 µM | MDA-N 1.87 µM | NCI-H23 14.6 µM | EKVX 21.5 µM | HCC 2998 8.51 µM | MCF7 4.21 µM | IGROV-1 6.59 µM
3.94 µM: HCT-15
